Data reported in US11066433B2, “Pentaaza macrocyclic ring complexes possessing oral bioavailability” (Galera Labs, LLC, priority 2015, dated 2021).

Experiment: Oral bioavailability by intraduodenal (id) dosing of minipigs, oil formulations, versus iv parent
Type: in vivo, Gottingen minipig
Conditions: for Mini-Pig BioA: id 10 mg/kg, 10% by weight formulation, vs iv 1 mg/kg parent, AUC0-24 h
Method: Compounds were screened for oral bioavailability by injecting the formulated prodrugs directly into the duodenum (intraduodenal or id administration) of the minipig test subjects, thus bypassing the acidic environment of the stomach and thereby eliminating potentially misleading oral bioavailability results that could arise from alteration of the test article drug in the acid environment of the stomach.
The studies were conducted at Xenometrics LLC (Stillwell, Kans.) and the id bioavailability was determined using various axial ligand derivative complexes of GC4419, GC4444, GC4403 and GC4401.
Male Gottingen minipigs (4-5 mo old, 9-12 kg weight) were purchased from Marshall BioResources and housed at Xenometrics. […] The distal end was exteriorized with a reusable accessible hub (see surgical details below). During a recovery period of at least 2 weeks the minipigs were handled daily to acclimate them to the test procedures, i.e., id dosing and blood collections. For each experiment, each minipig received a test article drug dissolved or suspended in an excipient vehicle. […] All dosing experiments were conducted in fasted animals. Food was withdrawn from the minipigs 16 hours before dosing. The minipigs had ad libitum access to water. Dosed minipigs were allowed access to food 6 hour after dosing. The test article was administered at a dose of 10 mg/kg parent drug in 0.1 mL/kg vehicle (e.g., 1.5 mL in 15 kg minipig) as a bolus injection (˜1 minute) via the id cannula. The actual amount of total test article drug administered varied with the formula weight of the prodrug. An equal volume of excipient vehicle was used to flush the cannula after the test article was administered. Approximately 6 hours later, corn oil was used to flush the cannula. After approximately 24 hours post-dose, the catheter was flushed with sterile saline solution and capped. At the following time-points 0.25, 0.5, 1, 2, 4, 8, 24 and 48 hour post-injection, 2 mL blood samples were collected by cranial vena cava puncture (4 mL Sodium heparin Vacutainer, 20 g 1.5″ needle) after the skin surface was wiped with ethanol. The minipig was placed in a sling in a recumbent position without anesthesia for the collection of blood samples. The minipigs were never used more than once per 7 days for experimentation. The blood samples were kept on ice until processed for plasma. Blood samples were centrifuged at 1200×g for ten minutes at 4° C. and plasma samples were transferred to 96 well plate tubes, capped and stored at −20° C. until shipment on dry ice to the analytical laboratory used for measuring the concentration of drug in the plasma. The concentration of the parent manganese pentaaza macrocylic ring complex (independent of the composition of the axial ligands) was measured in plasma using a validated HPLC/MS/MS method that is linear between 50 ng/mL and 20,000 ng/mL.
Maisine 35-1 is chemically defined to be the monoglyceride glyceryl monolinoleate (NF) and was supplied by Gattefosse, SAINT-PRIEST Cedex, France. Labrasol (NF) is chemically defined to be caprylocaproyl polyoxyl-8 glycerides NF and was supplied by Gattefosse, SAINT-PRIEST Cedex, France. Labrafil M 1944 CS is chemically defined to be oleoyl polyoxyl-6 glycerides (NF), and is available from Gattefosse, SAINT-PRIEST Cedex, France. The dosing solutions were all prepared using a four place analytical balance by weighing all components of each formulation so that 10% by weight of each formulation contained the test article drug substance and 90% by weight of the oil used for that formulation.
The bioanalytical method which is used to quantitate the parent Mn(II) macrocyclic ring ligand structure in plasma utilizes HPLC with MS/MS detection and monitors the presence of the monocationic [monoformatoMn(pentaazamacrocycle)]+ complex. […]

Row | Mini-Pig BioA (base oil Capmul MCM) [%] | Mini-Pig BioA (base oil Maisine 35-1) [%] | Mini-Pig BioA (base oil Peceol) [%] | Mini-Pig BioA (base oil Labrafil M2125 CS) [%] | Substance | also measured
1 | 24 | 18 | 29 |  | Manganese(II)bis-Benzoato[(4aS,13aS,17aS,21aS)-1,2,3,4,4a,5,6,12,13,13a,14,15,16,17,17a,18,19,20,21,21a-Eicosahydro-11,7-nitrilo-7H-dibenzo[b,h][1,4,7,10] tetraazacycloheptadecine-κN5, κN13, κN18, κN21, κN22]- [GC4712] | 
2 | 36 |  |  |  | Manganese(II)bis-L-Lactato[(4aS,13aS,17aS,21aS)-1,2,3,4,4a,5,6,12,13,13a,14,15,16,17,17a,18,19,20,21,21a-Eicosahydro-11,7-nitrilo-7H-dibenzo[b,h][1,4,7,10] tetraazacycloheptadecine-κN5, κN13, κN18, κN21, κN22]- [GC4714] | 
3 | 15 | 8 | 11 | 16 | Manganese(II)bis-acetato[(4aS,13aS,17aS,21aS)-1,2,3,4,4a,5,6,12,13,13a,14,15,16,17,17a,18,19,20,21,21a-Eicosahydro-11,7-nitrilo-7H-dibenzo[b,h][1,4,7,10] tetraazacycloheptadecine-κN5, κN13, κN18, κN21, κN22]- [GC4701] | 
4 | 12 |  |  |  | Manganese(II)bis-dodecanoato[(4aS,13aS,17aS,21aS)-1,2,3,4,4a,5,6,12,13,13a,14,15,16,17,17a,18,19,20,21,21a-Eicosahydro-11,7-nitrilo-7H-dibenzo[b,h][1,4,7,10] tetraazacycloheptadecine-κN5, κN13, κN18, κN21, κN22]- [GC4708] | 
5 |  |  | 18 | 21 | Manganese(II)bis-n-Butyrato[(4aS,13aS,17aS,21aS)-1,2,3,4,4a,5,6,12,13,13a,14,15,16,17,17a,18,19,20,21,21a-Eicosahydro-11,7-nitrilo-7H-dibenzo[b,h][1,4,7,10] tetraazacycloheptadecine-κN5, κN13, κN18, κN21, κN22]- [GC4713] | 
6 | 13 | 8 |  | 21 | Manganese(II)bis-octanoato[(4aS,13aS,17aS,21aS)-1,2,3,4,4a,5,6,12,13,13a,14,15,16,17,17a,18,19,20,21,21a-Eicosahydro-11,7-nitrilo-7H-dibenzo[b,h][1,4,7,10] tetraazacycloheptadecine-κN5, κN13, κN18, κN21, κN22]- [GC4710] | 
7 | 25 | 31 | 28 |  | Manganese(II)bis-phenylglyoxaloto[(4aS,13aS,17aS,21aS)-1,2,3,4,4a,5,6,12,13,13a,14,15,16,17,17a,18,19,20,21,21a-Eicosahydro-11,7-nitrilo-7H-dibenzo[b,h][1,4,7,10]tetraazacyclohepta-decine-κN5, κN13, κN18, κN21, κN22]- [GC4719] | 
8 | 17 |  |  | 22 | Manganese(II)bis-pivaloato[(4aS,13aS,17aS,21aS)-1,2,3,4,4a,5,6,12,13,13a,14,15,16,17,17a,18,19,20,21,21a-Eicosahydro-11,7-nitrilo-7H-dibenzo[b,h][1,4,7,10] tetraazacycloheptadecine-κN5, κN13, κN18, κN21, κN22]- [GC4709] | 
9 | 28 |  |  |  | Manganese(II)bis-rac-Mandelato[(4aS,13aS,17aS,21aS)-1,2,3,4,4a,5,6,12,13,13a,14,15,16,17,17a,18,19,20,21,21a-Eicosahydro-11,7-nitrilo-7H-dibenzo[b,h][1,4,7,10] tetraazacycloheptadecine-κN5, κN13, κN18, κN21, κN22]- [GC4706] | 

More lines, now with the values behind:

Row | Substance | Mini-Pig BioA (base oil Capmul MCM) [%] | Mini-Pig BioA (base oil Maisine 35-1) [%] | Mini-Pig BioA (base oil Peceol) [%] | Mini-Pig BioA (base oil Labrafil M2125 CS) [%] | also measured
10 | Manganese(II)bis-L-phenylalaninato[(4aS,13aS,17aS,21 aS)-1,2,3,4,4a,5,6,12,13,13a,14, 15,16,17,17a,18,19,20,21,21a-Eicosahydro-11,7-nitrilo-7H-dibenzo[b, h][1,4,7,10]tetraazacyclo-heptadecine-κN5, κN13, κN18, κN21, κN22]- [GC4704] | 10 |  |  |  | 
11 | Manganese(II)bis-L-phenylglycinato[(4aS,13aS,17aS,21 aS)-1,2,3,4,4a,5,6,12,13,13a, 14,15,16,17,17a,18,19,20,21,21a-Eicosahydro-11,7-nitrilo-7H-dibenzo[b,h][1,4,7,10]tetraazacyclo-heptadecine-κN5, κN13, κN18, κN21, κN22]- [GC4702] | 43 |  | 29 | 25 | Mini-Pig BioA (base oil Miglyol 812 N): 42%; oral bioavailability, comparison in words (id dosing of minipigs, various oils): much better absorbed
12 | Manganese(II)bis-L-valinato[(4aS,13aS,17aS,21aS)-1,2,3,4,4a,5,6,12,13,13a,14,15,16,17,17a,18,19,20,21,21a-Eicosahydro-11,7-nitrilo-7H-dibenzo[b,h][1,4,7,10] tetraazacyclo-heptadecine-κN5, κN13, κN18, κN21, κN22]- [GC4746] | 13 |  |  |  | 
13 | Manganese(II)bis-cyclohexanebutyrato[(4aS,13aS,17aS,21 aS)-1,2,3,4,4a,5,6,12,13,13a, 14,15,16,17,17a,18,19,20,21,21a-Eicosahydro-11,7-nitrilo-7H-dibenzo[b,h][1,4,7,10]tetraazacyclo-heptadecine-κN5, κN13, κN18, κN21, κN22]- [GC4707] | 9 |  |  |  | 
14 | Manganese(II)bis-phenylacetato[(4aS,13aS,17aS,21aS)-1,2,3,4,4a,5,6,12,13,13a,14,15,16,17,17a,18,19,20,21,21a-Eicosahydro-11,7-nitrilo-7H-dibenzo[b,h][1,4,7,10] tetraazacyclo-heptadecine-κN5, κN13, κN18, κN21, κN22]- [GC4718] | 32 | 28 |  |  | 
15 | Manganese(II)bis-propionato[6R-Methyl(4aR,13aR,17aR,21 aR)-1,2,3,4,4a,5,6,12,13,13a,14,15,16,17,17a,18,19,20,21,21a-Eicosahydro-11,7-nitrilo-7H-dibenzo[b,h][1,4,7,10] tetraazacycloheptadecine-κN5, κN13, κN18, κN21, κN22]- [GC4747] |  |  |  | 20 | 
16 | Manganese(II)bis-propionato[(4aR,13aR,17aR,21 aR)-1,2,3,4,4a,5,6,12,13,13a,14,15,16,17,17a,18,19,20,21,21a-Eicosahydro-11,7-nitrilo-7H-dibenzo[b,h][1,4,7,10] tetraazacycloheptadecine-κN5, κN13, κN18, κN21, κN22]- [GC4748] |  |  |  | 22 | 
17 | Manganese(II)bis-propionato[(4aS,13aS,17aS,21aS)-1,2,3,4,4a,5,6,12,13,13a,14,15,16,17,17a,18,19,20,21,21a-Eicosahydro-11,7-nitrilo-7H-dibenzo[b,h][1,4,7,10] tetraaza-cycloheptadecine-κN5, κN13, κN18, κN21, κN22]- [GC4711] | 27 | 29 | 29 | 44 | Mini-Pig BioA (base oil Labrafil M1944 CS): 23%
18 | Manganese(II)bis-racemic-2-phenylpropionato[(4aS,13aS,17aS,21 aS)-1,2,3,4,4a,5,6,12,13,13a,14,15,16,17,17a,18,19,20,21,21a-Eicosahydro-11,7-nitrilo-7H-dibenzo[b,h][1,4,7,10] tetraazacycloheptadecine-κN5, κN13, κN18, κN21, κN22]- [GC4705] | 23 |  | 24 |  | 
